Laboratory results reported in US9006257B2, “Bicyclic compounds as mPGES-1 inhibitors” (Glenmark Pharmaceuticals S.A., priority 2012, dated 2015).

Target: T1, Recombinant human mPGES-1 (Homo sapiens, UniProt O14684)
T1 construct: made in house; host or cells: CHO cells
T1 sequence (O14684 1-152): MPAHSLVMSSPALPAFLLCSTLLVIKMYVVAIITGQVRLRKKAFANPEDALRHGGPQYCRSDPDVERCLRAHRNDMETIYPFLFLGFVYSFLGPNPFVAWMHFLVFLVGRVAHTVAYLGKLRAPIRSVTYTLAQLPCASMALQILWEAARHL
Experiment: In-vitro mPGES-1 inhibitor screening (inhibition of PGE2 formation from PGH2, HTRF detection)
Assay type: biochemical
Conditions: for inhibition at 1 µM: 1 μM test compound, read-out: Percentage inhibition at 1 μM; for inhibition at 1 µM / inhibition at 10 µM: crude microsomal fraction, 15 μM PGH2; for inhibition at 10 µM: 10 μM test compound, read-out: Percentage inhibition at 10 μM; for IC50: class symbol, concentration response curve
Description: In-Vitro Protocol for Screening of mPGES-1 Inhibitors:
mPGES-1 (microsomal prostaglandin E synthase-1) is a microsomal enzyme that converts endoperoxide substrate PGH2 (prostaglandin H2) to product PGE2 (prostaglandin E2) by isomerization in the presence of reduced glutathione (GSH). mPGES-1 inhibitors were screened by assessing their ability to inhibit formation of PGE2 from PGH2 in presence of mPGES-1 using an anti-PGE2 antibody based detection method. Recombinant human mPGES-1 was generated in-house by expression in CHO cells (Ouellet M et al. (2002), Protein Expression and Purification 26: 489-495). The assay was set up using crude microsomal fractions at protein concentration of 40-60 μg/mL. Test compounds were prepared in 100% dimethyl sulfoxide (DMSO) to obtain 20 mM stock solution and then diluted using assay buffer comprising 0.1 M Potassium phosphate buffer with 2 mM EDTA. The final concentration of DMSO in reaction was 0.5% (v/v). Negative controls were comprised of all assay reagents except the enzyme. Positive controls were comprised of the enzyme reaction in the absence of any inhibitor. Test compounds were incubated for 10 minutes in assay buffer containing 2.5 mM GSH and mPGES-1 enzyme followed by addition of PGH2 at a concentration of 15 μM for 1 minute. The reaction was stopped by addition of Stannous chloride (11 mg/ml) and PGE2 levels were measured (Masse F et al. (2005), Journal of Biomolecular Screening 10(6) 599-605., Goedken R E et al. (2008), Journal of Biomolecular Screening 13(7): 619-625) by HTRF kit (CisBio)).
Inhibition of mPGES-1 enzyme activity was measured using the percent of reaction occurring in the positive control. Concentration response curves were plotted using percent inhibition of maximum enzyme reaction. The IC50 value was calculated from the concentration response curve by nonlinear regression analysis using GraphPad PRISM software.

Compound	inhibition at 1 µM	inhibition at 10 µM	IC50
Cc1nc(NC2CCC(F)(F)CC2)c2cccc(NC(=O)c3c(Cl)ccc(CNC(=O)C(C)(C)C)c3F)c2n1 [Example-60, 6-Chloro-N-(4-((4,4-difluorocyclohexyl)amino)-2-methylquinazolin-8-yl)-2-fluoro-3-(pivalamidomethyl)benzamide]	86.5%	91.7%	> 100 nM
CC(C)(C)C(=O)NCc1ccc(Cl)c(C(=O)Nc2cccc3c(O[C@H]4CC[C@H](C(F)(F)F)CC4)nccc23)c1F [Example-50, 6-Chloro-2-fluoro-3-(pivalamidomethyl)-N-(1-(((1r,4r)-4-(trifluoromethyl)cyclohexyl)oxy)isoquinolin-5-yl)benzamide]	99.2%	99.6%	< 50 nM
CC(C)(C)C(=O)NCc1ccc(Cl)c(C(=O)Nc2cccc3c(Oc4ccc(C(F)(F)F)cc4)nccc23)c1 [Example-46, 2-Chloro-5-(pivalamidomethyl)-N-(1-(4-(trifluoromethyl)phenoxy)isoquinolin-5-yl)benzamide]	89.4%	97.7%	< 50 nM
CC(C)C(=O)NCc1cnc(C(F)F)c(C(=O)Nc2cccc3c(NC(C)(C)C)ncnc23)c1 [Example-75, N-(4-(tert-Butylamino)quinazolin-8-yl)-2-(difluoromethyl)-5-(isobutyramidomethyl)nicotinamide]	93.6%	98.3%	< 50 nM
CC1(C)CCC(Oc2ncnc3c(NC(=O)c4cc(CNC(=O)C(C)(C)C)ccc4Cl)cccc23)CC1 [Example-15, 2-Chloro-N-(4-((4,4-dimethylcyclohexyl)oxy)quinazolin-8-yl)-5-(pivalamidomethyl)benzamide]	98.1%	97.5%	< 50 nM
CC(C)(C)C(=O)NCc1ccc(Cl)c(C(=O)Nc2cccc3c(O[C@H]4CC[C@@H](C(F)(F)F)CC4)ncnc23)c1F [Example-26, 6-Chloro-2-fluoro-3-(pivalamidomethyl)-N-(4-(((1s,4s)-4-(trifluoromethyl)cyclohexyl)oxy)quinazolin-8-yl)benzamide]	93.4%	93.1%	< 50 nM
CC(C)(C)C(=O)NCc1ccc(Cl)c(C(=O)Nc2cccc3c(Oc4ccc(F)c(C(F)(F)F)c4)ccnc23)c1F [Example-51, 6-Chloro-2-fluoro-N-(4-(4-fluoro-3-(trifluoromethyl)phenoxy)quinolin-8-yl)-3-(pivalamidomethyl)benzamide]	99.3%	99.7%	< 50 nM
Cc1nc(NC2CCC(C)(C)CC2)c2cccc(NC(=O)c3c(Cl)ccc(CNC(=O)C(C)(C)C)c3F)c2n1 [Example-54, 6-Chloro-N-(4-((4,4-dimethylcyclohexyl)amino)-2-methylquinazolin-8-yl)-2-fluoro-3-(pivalamidomethyl)benzamide]	98.2%	97.3%	< 50 nM
Cc1ccc2c(Nc3cccc(C(F)(F)F)c3)ncnc2c1NC(=O)c1c(Cl)ccc(CNC(=O)C(C)(C)C)c1F [Example-42, 6-Chloro-2-fluoro-N-(7-methyl-4-((3-(trifluoromethyl)phenyl)amino)quinazolin-8-yl)-3-(pivalamidomethyl)benzamide]	96.5%	99.6%	< 50 nM
CC(C)(C)C(=O)NCc1ccc(Cl)c(C(=O)Nc2cccc3c(Oc4cccc(C(F)(F)F)c4)ncnc23)c1 [Example-10, 2-Chloro-5-(pivalamidomethyl)-N-(4-(3-(trifluoromethyl)phenoxy)quinazolin-8-yl)benzamide]	99.7%	98.9%	< 50 nM
CC(C)(C)C(=O)NCc1ccc(Cl)c(C(=O)Nc2cccc3c(Nc4cccc(C(F)(F)F)c4)nccc23)c1F [Example-1, 6-Chloro-2-fluoro-3-(pivalamidomethyl)-N-(1-((3-(trifluoromethyl)phenyl)amino)isoquinolin-5-yl)benzamide]	95.2%	96.7%	< 50 nM
O=C(Nc1cccc2c(Nc3cccc(C(F)(F)F)c3)ncnc12)c1c(Cl)ccc(CNC(=O)[C@@H]2CCCO2)c1F [Example-23, (S)—N-(4-Chloro-2-fluoro-3-((4-((3-(trifluoromethyl)phenyl)amino)quinazolin-8-yl)carbamoyl)benzyl)tetrahydrofuran-2-carboxamide]	95%	94.9%	< 50 nM
CC(C)(C)C(=O)NCc1ccc(Cl)c(C(=O)Nc2cccc3c(NC4CCC(F)(F)CC4)ncnc23)c1 [Example-14, 2-Chloro-N-(4-((4,4-difluorocyclohexyl)amino)quinazolin-8-yl)-5-(pivalamidomethyl)benzamide]	100%	100%	< 50 nM

Now from value to molecule:

inhibition at 1 µM	inhibition at 10 µM	IC50	Compound
97.7%	98.3%	< 50 nM	CC(C)(C)C(=O)NCc1ccc(Cl)c(C(=O)Nc2cccc3c(Nc4ccc(F)c(C(F)(F)F)c4)ncnc23)c1F [Example-25, 6-Chloro-2-fluoro-N-(4-((4-fluoro-3-(trifluoromethyl)phenyl)amino)quinazolin-8-yl)-3-(pivalamidomethyl)benzamide]
97.7%	96.3%	< 50 nM	CC(C)(C)C(=O)NCc1ccc(Cl)c(C(=O)Nc2cccc3c(N[C@H]4CC[C@H](C(F)(F)F)CC4)ncnc23)c1F [Example-37, 6-Chloro-2-fluoro-3-(pivalamidomethyl)-N-(4-(((1r,4r)-4-(trifluoromethyl)cyclohexyl)amino)quinazolin-8-yl)benzamide]
99.1%	100%	< 50 nM	CC(C)(C)C(=O)NCc1ccc(Cl)c(C(=O)Nc2cccc3c(Oc4cc(C(F)(F)F)ccc4F)ncnc23)c1F [Example-28, 6-Chloro-2-fluoro-N-(4-(2-fluoro-5-(trifluoromethyl)phenoxy)quinazolin-8-yl)-3-(pivalamidomethyl)benzamide]
97.3%	97.8%	< 50 nM	CC(C)(C)Nc1ncnc2c(NC(=O)c3c(Cl)ccc(CNC(=O)C(C)(C)C)c3F)cccc12 [Example-62, N-(4-(tert-Butylamino)quinazolin-8-yl)-6-chloro-2-fluoro-3-(pivalamidomethyl)benzamide]
88.7%	93.2%	< 50 nM	CC(C)C(=O)NCc1ccc(Cl)c(C(=O)Nc2cccc3c(NCC(F)(F)F)ncnc23)c1F [Example-73, 6-Chloro-2-fluoro-3-(isobutyramidomethyl)-N-(4-((2,2,2-trifluoroethyl)amino)quinazolin-8-yl)benzamide]
94%	93%	< 50 nM	Cc1nc(NC(C)(C)C)c2cccc(NC(=O)c3c(Cl)ccc(CNC(=O)C(C)(C)C)c3F)c2n1 [Example-65, N-(4-(tert-Butylamino)-2-methylquinazolin-8-yl)-6-chloro-2-fluoro-3-(pivalamidomethyl)benzamide]
94.4%	93.9%	< 50 nM	CC(C)(C)C(=O)NCc1ccc(Cl)c(C(=O)Nc2cccc3c(O[C@H]4CC[C@H](C(F)(F)F)CC4)ncnc23)c1F [Example-27, 6-Chloro-2-fluoro-3-(pivalamidomethyl)-N-(4-(((1r,4r)-4-(trifluoromethyl)cyclohexyl)oxy)quinazolin-8-yl)benzamide]
97.4%	90.7%	< 50 nM	CC(C)(C)C(=O)NCc1ccc(Cl)c(C(=O)Nc2cccc3c(Oc4cccc(C(F)(F)F)c4)ncnc23)c1F [Example-11, 6-Chloro-2-fluoro-3-(pivalamidomethyl)-N-(4-(3-(trifluoromethyl)phenoxy)quinazolin-8-yl)benzamide]
86.8%	98.7%	50 to 100 nM	CC(C)(C)Nc1ncnc2c(NC(=O)c3ccc(F)c(CNC(=O)C(C)(C)C)c3Cl)cccc12 [Example-72, N-(4-(tert-Butylamino)quinazolin-8-yl)-2-chloro-4-fluoro-3-(pivalamidomethyl)benzamide]
98.8%	99.4%	< 50 nM	CC(C)(C)C(=O)NCc1ccc(Cl)c(C(=O)Nc2cccc3c(NC4CCC(F)(F)CC4)ncnc23)c1F [Example-20, 6-Chloro-N-(4-((4,4-difluorocyclohexyl)amino)quinazolin-8-yl)-2-fluoro-3-(pivalamidomethyl)benzamide]
